Data taken from the supplement of paper PMC4862054.
Where “and” joins values, the source holds several entries; their conditions need not be identical. Equal values may be shown once.

How the values were obtained:
Conditions in all cases: incubation time: 72 h
MFM-223 [1] = test: normalised viability (% of control), CellTiter-Blue; higher = more viable cells (about 100 = DMSO control)
In short: (§1)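 Breast cancer cell lines were treated for 72 h in 384-well format and measured by CellTiter-Blue fluorescence at 560/590 nm. Results were normalised per plate to vehicle (100) and a positive kill control (0). The entry is normalised viability at a single listed concentration of the series.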

CAL-51 [2] = test: as above
In short: as §1

HCC1937 [3] = test: as above
In short: as §1

HCC1599 [4] = test: as above
In short: as §1

MDA-MB-453 [5] = test: as above
In short: as §1

HDQ-P1 [6] = test: as above
In short: as §1

MDA-MB-436 [7] = test: as above
In short: as §1

HCC1143 = test: drug sensitivity score (DSS), CellTiter-Blue viability (DSS (AUC-based score)); higher = stronger viability inhibition; extreme values may be limits of the assay
Protocol: (§2)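 DSRT with the CellTiter-Blue (resazurin reduction) viability readout, fluorescence 560/590 nm, 72 h incubation. Plates were normalised to DMSO and benzethonium chloride controls. DSS is computed from the area under the fitted dose-response curve (5 or 9 concentrations).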

CAL-148 = test: as above
Protocol: as §2

MFM-223 [8] = test: as above
Protocol: as §2

CAL-51 [9] = test: as above
Protocol: as §2

CAL-85-1 = test: as above
Protocol: as §2

MDA-MB-231 = test: as above
Protocol: as §2

BT-474 = test: as above
Protocol: as §2

HCC1937 [10] = test: as above
Protocol: as §2

DU-4475 = test: as above
Protocol: as §2

HCC1599 [11] = test: as above
Protocol: as §2

BT-549 = test: as above
Protocol: as §2

Hs578T = test: as above
Protocol: as §2

MDA-MB-468 = test: as above
Protocol: as §2

MDA-MB-453 [12] = test: as above
Protocol: as §2

HDQ-P1 [13] = test: as above
Protocol: as §2

SK-BR-3 = test: as above
Protocol: as §2

MDA-MB-436 [14] = test: as above
Protocol: as §2

CAL-120 = test: as above
Protocol: as §2

## CC1(C)CCC(c2ccc(Cl)cc2)=C(CN2CCN(c3ccc(C(=O)NS(=O)(=O)c4ccc(N[C@H](CCN5CCOCC5)CSc5ccccc5)c(S(=O)(=O)C(F)(F)F)c4)cc3)CC2)C1 [Navitoclax]
MFM-223 [1]; 10 nM
  normalised viability: 77.2%
MFM-223 [1]; 1000 nM
  normalised viability: 68.7%
MFM-223 [1]; 10000 nM
  normalised viability: 40.6%
CAL-51 [2]; 3 nM
  normalised viability: 112%
CAL-51 [2]; 30 nM
  normalised viability: 104%
CAL-51 [2]; 100 nM
  normalised viability: 101%
HCC1937 [3]; 10 nM
  normalised viability: 87.6%
HCC1937 [3]; 1000 nM
  normalised viability: 85.8%
HCC1937 [3]; 10000 nM
  normalised viability: 85%
HCC1599 [4]; 10 nM
  normalised viability: 94.5%
HCC1599 [4]; 1000 nM
  normalised viability: 62.2%
HCC1599 [4]; 10000 nM
  normalised viability: 74.7%
MDA-MB-453 [5]; 3 nM
  normalised viability: 104%
MDA-MB-453 [5]; 30 nM
  normalised viability: 88.5%
MDA-MB-453 [5]; 100 nM
  normalised viability: 74.9%
HDQ-P1 [6]; 3 nM
  normalised viability: 81.4%
HDQ-P1 [6]; 30 nM
  normalised viability: 79.7%
HDQ-P1 [6]; 100 nM
  normalised viability: 79.3%
MDA-MB-436 [7]; 10 nM
  normalised viability: 76.2%
MDA-MB-436 [7]; 1000 nM
  normalised viability: 98.7%
MDA-MB-436 [7]; 10000 nM
  normalised viability: 71.7%
HCC1143
  drug sensitivity score: 0
CAL-148
  drug sensitivity score: 4.37
MFM-223 [8]
  drug sensitivity score: 2.7
CAL-51 [9]
  drug sensitivity score: 0
CAL-85-1
  drug sensitivity score: 0
MDA-MB-231
  drug sensitivity score: 7.75
BT-474
  drug sensitivity score: 0
HCC1937 [10]
  drug sensitivity score: 0
DU-4475
  drug sensitivity score: 17.2
HCC1599 [11]
  drug sensitivity score: 5.97
BT-549
  drug sensitivity score: 3.17
Hs578T
  drug sensitivity score: 0
MDA-MB-468
  drug sensitivity score: 3.12
MDA-MB-453 [12]
  drug sensitivity score: 0
HDQ-P1 [13]
  drug sensitivity score: 9.87
SK-BR-3
  drug sensitivity score: 0
MDA-MB-436 [14]
  drug sensitivity score: 0
CAL-120
  drug sensitivity score: 6.12

## Cc1cn(-c2cc(NC(=O)c3ccc(C)c(Nc4nccc(-c5cccnc5)n4)c3)cc(C(F)(F)F)c2)cn1 [Nilotinib]
MFM-223 [1]; 10 nM
  normalised viability: 92.3% and 91.1%
MFM-223 [1]; 1000 nM
  normalised viability: 98.9% and 91%
MFM-223 [1]; 10000 nM
  normalised viability: 91.7% and 89.4%
CAL-51 [2]; 3 nM
  normalised viability: 107% and 112%
CAL-51 [2]; 30 nM
  normalised viability: 108% and 106%
CAL-51 [2]; 100 nM
  normalised viability: 101% and 111%
HCC1937 [3]; 10 nM
  normalised viability: 86% and 80.5%
HCC1937 [3]; 1000 nM
  normalised viability: 69.4%
HCC1937 [3]; 10000 nM
  normalised viability: 71.9% and 73.7%
HCC1599 [4]; 10 nM
  normalised viability: 93.3% and 95.8%
MDA-MB-453 [5]; 3 nM
  normalised viability: 111% and 103%
MDA-MB-453 [5]; 30 nM
  normalised viability: 95.6% and 90%
MDA-MB-453 [5]; 100 nM
  normalised viability: 91.7% and 103%
HDQ-P1 [6]; 3 nM
  normalised viability: 92.5% and 86.2%
HDQ-P1 [6]; 30 nM
  normalised viability: 87.3% and 81.5%
HDQ-P1 [6]; 100 nM
  normalised viability: 95.3% and 83.1%
MDA-MB-436 [7]; 10 nM
  normalised viability: 98.2% and 88.3%
MDA-MB-436 [7]; 1000 nM
  normalised viability: 75.7% and 76.8%
MDA-MB-436 [7]; 10000 nM
  normalised viability: 92.5% and 75.2%
HCC1143
  drug sensitivity score: 0
CAL-148
  drug sensitivity score: 0
MFM-223 [8]
  drug sensitivity score: 0
CAL-51 [9]
  drug sensitivity score: 0
CAL-85-1
  drug sensitivity score: 0
MDA-MB-231
  drug sensitivity score: 4.55 and 5.18
BT-474
  drug sensitivity score: 0
HCC1937 [10]
  drug sensitivity score: 6.24 and 6.45
DU-4475
  drug sensitivity score: 0
HCC1599 [11]
  drug sensitivity score: 0
BT-549
  drug sensitivity score: 6.16 and 6.02
Hs578T
  drug sensitivity score: 0
MDA-MB-468
  drug sensitivity score: 0
MDA-MB-453 [12]
  drug sensitivity score: 0
HDQ-P1 [13]
  drug sensitivity score: 0
SK-BR-3
  drug sensitivity score: 0
MDA-MB-436 [14]
  drug sensitivity score: 0
CAL-120
  drug sensitivity score: 0

## C=CCN(/C=C1/C(=O)O[C@H](COC)[C@@]2(C)C1=C(O)C(=O)C1=C2[C@H](OC(C)=O)C[C@]2(C)C(=O)CC[C@@H]12)CC=C [PX-866]
MFM-223 [1]; 10 nM
  normalised viability: 86.5%
MFM-223 [1]; 1000 nM
  normalised viability: 96.9%
MFM-223 [1]; 10000 nM
  normalised viability: 95.9%
CAL-51 [2]; 3 nM
  normalised viability: 118%
CAL-51 [2]; 30 nM
  normalised viability: 107%
CAL-51 [2]; 100 nM
  normalised viability: 103%
HCC1937 [3]; 10 nM
  normalised viability: 106%
HCC1937 [3]; 1000 nM
  normalised viability: 73.6%
HCC1937 [3]; 10000 nM
  normalised viability: 59.7%
HCC1599 [4]; 10 nM
  normalised viability: 98.3%
HCC1599 [4]; 1000 nM
  normalised viability: 105%
HCC1599 [4]; 10000 nM
  normalised viability: 78.3%
MDA-MB-453 [5]; 3 nM
  normalised viability: 128%
MDA-MB-453 [5]; 30 nM
  normalised viability: 95.7%
MDA-MB-453 [5]; 100 nM
  normalised viability: 98.9%
HDQ-P1 [6]; 3 nM
  normalised viability: 113%
HDQ-P1 [6]; 30 nM
  normalised viability: 128%
HDQ-P1 [6]; 100 nM
  normalised viability: 114%
MDA-MB-436 [7]; 10 nM
  normalised viability: 93.3%
MDA-MB-436 [7]; 1000 nM
  normalised viability: 90.2%
MDA-MB-436 [7]; 10000 nM
  normalised viability: 62%
HCC1143
  drug sensitivity score: 3.95
CAL-148
  drug sensitivity score: 0
MFM-223 [8]
  drug sensitivity score: 0
CAL-51 [9]
  drug sensitivity score: 0
CAL-85-1
  drug sensitivity score: 0
MDA-MB-231
  drug sensitivity score: 5.75
BT-474
  drug sensitivity score: 5.22
HCC1937 [10]
  drug sensitivity score: 5.15
DU-4475
  drug sensitivity score: 0
HCC1599 [11]
  drug sensitivity score: 0
BT-549
  drug sensitivity score: 0
Hs578T
  drug sensitivity score: 3.48
MDA-MB-468
  drug sensitivity score: 8.51
MDA-MB-453 [12]
  drug sensitivity score: 0
HDQ-P1 [13]
  drug sensitivity score: 3.65
SK-BR-3
  drug sensitivity score: 9.05
MDA-MB-436 [14]
  drug sensitivity score: 0
CAL-120
  drug sensitivity score: 2.93

## CC[C@H](CO)Nc1nc(NCc2ccccc2)c2ncn(C(C)C)c2n1 [Roscovitine]
MFM-223 [1]; 10 nM
  normalised viability: 92.5%
MFM-223 [1]; 1000 nM
  normalised viability: 91.5%
MFM-223 [1]; 10000 nM
  normalised viability: 85.1%
CAL-51 [2]; 3 nM
  normalised viability: 111%
CAL-51 [2]; 30 nM
  normalised viability: 105%
CAL-51 [2]; 100 nM
  normalised viability: 105%
HCC1937 [3]; 10 nM
  normalised viability: 83.8%
HCC1937 [3]; 1000 nM
  normalised viability: 105%
HCC1937 [3]; 10000 nM
  normalised viability: 77.2%
HCC1599 [4]; 10 nM
  normalised viability: 109%
HCC1599 [4]; 1000 nM
  normalised viability: 95.8%
HCC1599 [4]; 10000 nM
  normalised viability: 64.4%
MDA-MB-453 [5]; 3 nM
  normalised viability: 105%
MDA-MB-453 [5]; 30 nM
  normalised viability: 114%
MDA-MB-453 [5]; 100 nM
  normalised viability: 109%
HDQ-P1 [6]; 3 nM
  normalised viability: 101%
HDQ-P1 [6]; 30 nM
  normalised viability: 103%
HDQ-P1 [6]; 100 nM
  normalised viability: 98.3%
MDA-MB-436 [7]; 10 nM
  normalised viability: 107%
MDA-MB-436 [7]; 1000 nM
  normalised viability: 92.7%
MDA-MB-436 [7]; 10000 nM
  normalised viability: 79.4%
HCC1143
  drug sensitivity score: 5.44
CAL-148
  drug sensitivity score: 0
MFM-223 [8]
  drug sensitivity score: 0
CAL-51 [9]
  drug sensitivity score: 0
CAL-85-1
  drug sensitivity score: 0
MDA-MB-231
  drug sensitivity score: 0
BT-474
  drug sensitivity score: 0
HCC1937 [10]
  drug sensitivity score: 0
DU-4475
  drug sensitivity score: 0
HCC1599 [11]
  drug sensitivity score: 2.39
BT-549
  drug sensitivity score: 2.4
Hs578T
  drug sensitivity score: 2.74
MDA-MB-468
  drug sensitivity score: 0
MDA-MB-453 [12]
  drug sensitivity score: 0
HDQ-P1 [13]
  drug sensitivity score: 0
SK-BR-3
  drug sensitivity score: 0
MDA-MB-436 [14]
  drug sensitivity score: 0.894
CAL-120
  drug sensitivity score: 0
